Test results published in patent publication US12071408B2, “Multi-targeted tyrosine kinase inhibitors effective in antitumor uses” (Shanghai AB PharmaTech Ltd., priority 2021, dated 2024).
Like-named read-outs stand apart in the source and are kept apart here.

Key:
[1] = test system: hepatocellular carcinoma cell line (Hep3B 2.1-7); assay: Tumor cell proliferation inhibition (CTG, 72 h); assay type: cell-based; conditions: Hep3B 2.1-7 cells, class, read-out: Hep3B 2.1-7 range of activity (IC50)
[2] = test system: bladder cancer cell line (RT112/84); assay: Tumor cell proliferation inhibition (CTG, 72 h); assay type: cell-based; conditions: RT112/84 cells, class, read-out: RT112/84 range of activity (IC50)
[3] = test system: thyroid cancer cell line (TT); assay: Tumor cell proliferation inhibition (CTG, 72 h); assay type: cell-based; conditions: TT cells, class, read-out: TT range of activity (IC50)
[4] = test system: cervical cancer cell line (Hela); assay: Tumor cell proliferation inhibition (CTG, 72 h); assay type: cell-based; conditions: Hela cells, class, read-out: Hela activity effect range (IC50)
[5] = test system: leukemia cell line (K562); assay: Tumor cell proliferation inhibition (CTG, 72 h); assay type: cell-based; conditions: K562 cells, class, read-out: K562 activity effect range (IC50)
VEGFR-2 (KDR) = VEGFR-2 (KDR) (Homo sapiens (Human), UniProt P35968); assay: Kinase inhibition, Mobility-Shift Assay; assay type: biochemical; conditions: class; read-out: KDR activity effect range (IC50)
Sequence of VEGFR-2 (KDR) (P35968 20-1356): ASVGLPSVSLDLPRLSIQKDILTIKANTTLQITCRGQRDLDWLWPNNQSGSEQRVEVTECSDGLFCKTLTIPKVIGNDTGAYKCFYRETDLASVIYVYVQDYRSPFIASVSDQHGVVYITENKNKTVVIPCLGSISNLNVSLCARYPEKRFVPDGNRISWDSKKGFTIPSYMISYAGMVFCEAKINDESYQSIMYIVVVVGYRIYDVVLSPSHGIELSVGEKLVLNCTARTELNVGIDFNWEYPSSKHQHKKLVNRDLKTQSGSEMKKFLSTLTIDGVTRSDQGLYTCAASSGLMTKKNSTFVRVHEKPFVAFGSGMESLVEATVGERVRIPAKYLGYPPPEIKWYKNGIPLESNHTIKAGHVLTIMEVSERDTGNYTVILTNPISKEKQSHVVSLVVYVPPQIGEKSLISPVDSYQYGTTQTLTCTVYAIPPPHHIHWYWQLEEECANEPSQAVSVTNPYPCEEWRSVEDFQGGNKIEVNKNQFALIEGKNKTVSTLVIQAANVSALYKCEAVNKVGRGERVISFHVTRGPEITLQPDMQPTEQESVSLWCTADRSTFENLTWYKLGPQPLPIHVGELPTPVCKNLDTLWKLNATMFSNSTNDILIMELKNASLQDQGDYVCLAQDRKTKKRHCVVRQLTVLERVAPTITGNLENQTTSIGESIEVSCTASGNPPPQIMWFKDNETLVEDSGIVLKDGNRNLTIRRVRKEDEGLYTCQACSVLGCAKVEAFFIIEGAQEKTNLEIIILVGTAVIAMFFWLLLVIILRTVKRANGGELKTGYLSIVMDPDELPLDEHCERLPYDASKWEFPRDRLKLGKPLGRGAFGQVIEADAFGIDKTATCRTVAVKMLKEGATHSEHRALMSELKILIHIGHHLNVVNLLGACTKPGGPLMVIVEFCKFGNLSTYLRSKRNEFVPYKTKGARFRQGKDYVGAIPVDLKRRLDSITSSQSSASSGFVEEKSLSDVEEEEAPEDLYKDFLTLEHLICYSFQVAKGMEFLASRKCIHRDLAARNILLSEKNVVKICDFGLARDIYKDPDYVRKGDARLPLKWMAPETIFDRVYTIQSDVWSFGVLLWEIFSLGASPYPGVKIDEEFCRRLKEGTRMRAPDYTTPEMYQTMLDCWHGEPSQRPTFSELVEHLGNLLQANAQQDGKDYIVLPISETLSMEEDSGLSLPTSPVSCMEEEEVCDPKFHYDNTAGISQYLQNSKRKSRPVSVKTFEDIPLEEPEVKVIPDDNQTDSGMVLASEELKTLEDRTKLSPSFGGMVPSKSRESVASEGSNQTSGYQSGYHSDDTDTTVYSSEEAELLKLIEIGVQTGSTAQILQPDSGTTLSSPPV

FGFR2 = FGFR2 (Homo sapiens (Human), UniProt P21802); assay: Kinase inhibition, Mobility-Shift Assay; assay type: biochemical; conditions: class; read-out: FGFR2 range of activity effects (IC50)
Sequence of FGFR2 (P21802 22-821): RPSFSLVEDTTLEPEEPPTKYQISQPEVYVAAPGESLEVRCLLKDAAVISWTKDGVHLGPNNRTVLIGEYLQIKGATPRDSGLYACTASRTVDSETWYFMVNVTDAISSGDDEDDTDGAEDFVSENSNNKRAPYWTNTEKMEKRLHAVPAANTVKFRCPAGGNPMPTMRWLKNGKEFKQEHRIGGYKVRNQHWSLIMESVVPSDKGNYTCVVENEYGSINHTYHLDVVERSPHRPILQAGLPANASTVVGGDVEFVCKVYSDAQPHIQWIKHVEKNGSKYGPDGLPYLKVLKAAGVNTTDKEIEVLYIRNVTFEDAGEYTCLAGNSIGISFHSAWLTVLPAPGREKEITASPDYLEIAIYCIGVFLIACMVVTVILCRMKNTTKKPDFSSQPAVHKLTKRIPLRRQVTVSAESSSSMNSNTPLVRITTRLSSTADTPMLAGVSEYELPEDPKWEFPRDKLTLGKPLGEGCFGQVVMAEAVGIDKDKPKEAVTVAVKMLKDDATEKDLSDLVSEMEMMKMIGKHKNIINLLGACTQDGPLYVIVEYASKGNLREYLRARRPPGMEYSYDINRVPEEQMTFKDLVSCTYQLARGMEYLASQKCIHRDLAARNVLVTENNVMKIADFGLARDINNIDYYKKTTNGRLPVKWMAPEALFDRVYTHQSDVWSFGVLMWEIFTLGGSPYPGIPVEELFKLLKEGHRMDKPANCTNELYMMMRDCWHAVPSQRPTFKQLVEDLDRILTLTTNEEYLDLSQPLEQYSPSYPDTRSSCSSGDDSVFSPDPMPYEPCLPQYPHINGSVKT

FGFR4 = FGFR4 (Homo sapiens (Human), UniProt P22455); assay: Kinase inhibition, Mobility-Shift Assay; assay type: biochemical; conditions: class; read-out: FGFR4 range of activity effects (IC50)
Sequence of FGFR4 (P22455 22-802): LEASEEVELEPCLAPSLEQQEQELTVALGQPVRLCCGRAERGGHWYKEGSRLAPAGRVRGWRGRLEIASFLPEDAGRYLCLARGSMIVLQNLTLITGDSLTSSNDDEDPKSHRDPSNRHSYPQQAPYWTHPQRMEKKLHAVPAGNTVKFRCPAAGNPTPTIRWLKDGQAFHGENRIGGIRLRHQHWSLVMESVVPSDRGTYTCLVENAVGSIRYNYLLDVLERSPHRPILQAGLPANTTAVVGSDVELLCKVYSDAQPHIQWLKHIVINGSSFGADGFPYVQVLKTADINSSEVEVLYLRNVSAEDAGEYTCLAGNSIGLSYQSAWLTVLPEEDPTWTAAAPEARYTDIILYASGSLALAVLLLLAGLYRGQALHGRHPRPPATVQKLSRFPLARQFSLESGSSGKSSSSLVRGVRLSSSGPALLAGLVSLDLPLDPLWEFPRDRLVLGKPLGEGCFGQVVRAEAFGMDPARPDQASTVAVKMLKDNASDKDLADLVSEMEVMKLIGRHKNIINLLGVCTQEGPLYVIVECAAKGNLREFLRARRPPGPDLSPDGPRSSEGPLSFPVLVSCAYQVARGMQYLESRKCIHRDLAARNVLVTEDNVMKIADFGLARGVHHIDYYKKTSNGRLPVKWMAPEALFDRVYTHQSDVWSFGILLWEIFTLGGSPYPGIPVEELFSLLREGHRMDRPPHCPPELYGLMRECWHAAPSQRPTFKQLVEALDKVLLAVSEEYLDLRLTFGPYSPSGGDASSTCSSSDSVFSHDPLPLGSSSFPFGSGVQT

EGFR = EGFR (Homo sapiens (Human), UniProt P00533); assay: Kinase inhibition, Mobility-Shift Assay; assay type: biochemical; conditions: class; read-out: EGFR range of activity (IC50)
C-MET = C-MET (Homo sapiens (Human), UniProt P08581); assay: Kinase inhibition, Mobility-Shift Assay; assay type: biochemical; conditions: class; read-out: C-MET range of activity (IC50)
Sequence of C-MET (P08581 25-1390): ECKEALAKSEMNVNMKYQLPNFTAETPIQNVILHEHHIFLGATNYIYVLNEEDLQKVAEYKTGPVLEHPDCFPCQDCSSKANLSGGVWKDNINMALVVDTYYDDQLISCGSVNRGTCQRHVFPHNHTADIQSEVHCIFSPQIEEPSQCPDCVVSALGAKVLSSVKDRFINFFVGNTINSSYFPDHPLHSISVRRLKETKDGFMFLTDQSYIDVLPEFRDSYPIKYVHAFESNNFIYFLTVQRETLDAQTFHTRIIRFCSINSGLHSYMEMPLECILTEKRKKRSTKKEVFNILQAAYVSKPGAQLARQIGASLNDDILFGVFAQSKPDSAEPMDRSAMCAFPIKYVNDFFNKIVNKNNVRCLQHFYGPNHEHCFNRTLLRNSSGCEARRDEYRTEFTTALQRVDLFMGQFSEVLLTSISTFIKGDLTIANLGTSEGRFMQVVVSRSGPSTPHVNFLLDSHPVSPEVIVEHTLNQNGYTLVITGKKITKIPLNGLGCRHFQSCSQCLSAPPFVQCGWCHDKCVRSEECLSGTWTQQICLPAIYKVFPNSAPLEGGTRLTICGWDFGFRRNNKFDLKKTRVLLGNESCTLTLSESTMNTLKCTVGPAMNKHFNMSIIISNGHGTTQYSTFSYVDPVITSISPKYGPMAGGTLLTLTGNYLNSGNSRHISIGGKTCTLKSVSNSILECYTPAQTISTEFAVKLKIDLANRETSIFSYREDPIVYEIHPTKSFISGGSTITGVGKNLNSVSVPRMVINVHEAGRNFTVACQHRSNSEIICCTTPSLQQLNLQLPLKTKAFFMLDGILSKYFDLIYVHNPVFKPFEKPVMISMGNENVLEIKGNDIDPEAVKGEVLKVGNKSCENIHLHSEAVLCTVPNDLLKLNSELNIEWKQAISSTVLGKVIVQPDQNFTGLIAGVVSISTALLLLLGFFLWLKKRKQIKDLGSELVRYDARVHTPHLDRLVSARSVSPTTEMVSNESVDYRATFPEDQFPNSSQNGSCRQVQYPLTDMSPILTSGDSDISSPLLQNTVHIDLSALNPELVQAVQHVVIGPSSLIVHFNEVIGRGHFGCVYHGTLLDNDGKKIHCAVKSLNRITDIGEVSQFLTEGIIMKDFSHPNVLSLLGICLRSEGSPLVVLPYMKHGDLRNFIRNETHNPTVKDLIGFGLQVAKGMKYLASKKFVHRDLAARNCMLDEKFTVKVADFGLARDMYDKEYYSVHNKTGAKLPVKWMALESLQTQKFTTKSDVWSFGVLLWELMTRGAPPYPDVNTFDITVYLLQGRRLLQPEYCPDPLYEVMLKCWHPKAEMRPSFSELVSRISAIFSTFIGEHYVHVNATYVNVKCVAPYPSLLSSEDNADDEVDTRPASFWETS

COc1cc2nccc(Oc3c(F)cc(NC(=O)NC4CCOCC4)c(Cl)c3F)c2cc1C(N)=O [III-28] gave an IC50 ([1]; Homo sapiens) of over 5000 nM, an IC50 ([2]; Homo sapiens) of over 1000 nM and an IC50 ([3]; Homo sapiens) of over 10000 nM. The IC50 ([4]; Homo sapiens) was over 10000 nM, the IC50 ([5]; Homo sapiens) was over 10000 nM and the IC50 (VEGFR-2 (KDR)) was over 10 nM. It also gave an IC50 (FGFR2) of over 100 nM, an IC50 (FGFR4) of over 100 nM and an IC50 (EGFR) of over 100 nM. It also gave an IC50 (C-MET) of over 100 nM.
COc1cc2nccc(Oc3c(F)cc(NC(=O)NC4CC(O)C4)c(Cl)c3F)c2cc1C(N)=O (stereo not drawn) [III-29] showed an IC50 ([1]; Homo sapiens) of over 5000 nM, an IC50 ([2]; Homo sapiens) of over 1000 nM and an IC50 ([3]; Homo sapiens) of over 10000 nM. It also gave an IC50 ([4]; Homo sapiens) of over 10000 nM, an IC50 ([5]; Homo sapiens) of over 10000 nM and an IC50 (VEGFR-2 (KDR)) of over 10 nM. It also gave an IC50 (FGFR2) of over 100 nM, an IC50 (FGFR4) of over 100 nM and an IC50 (EGFR) of over 100 nM. It also gave an IC50 (C-MET) of over 100 nM.
COc1cc2nccc(Oc3c(F)cc(NC(=O)NC4CC(O)C4)c(Cl)c3F)c2cc1C(N)=O (stereo not drawn) [III-30] showed an IC50 [1] of over 5000 nM, an IC50 [2] of over 1000 nM and an IC50 [3] of over 10000 nM. For the same molecule, the IC50 [4] was over 10000 nM, the IC50 [5] was over 10000 nM and the IC50 (VEGFR-2 (KDR)) was over 10 nM. The IC50 (FGFR2) was over 100 nM, the IC50 (FGFR4) was over 100 nM and the IC50 (EGFR) was over 100 nM. It also gave an IC50 (C-MET) of over 100 nM.
With COc1cc2nccc(Oc3c(F)cc(NC(=O)N4CC[C@H](O)C4)c(Cl)c3F)c2cc1C(N)=O [III-31] the IC50 ([1]; Homo sapiens) was over 5000 nM, the IC50 ([2]; Homo sapiens) was over 1000 nM and the IC50 ([3]; Homo sapiens) was over 10000 nM. The IC50 ([4]; Homo sapiens) was over 10000 nM, the IC50 ([5]; Homo sapiens) was over 10000 nM and the IC50 (VEGFR-2 (KDR)) was over 10 nM. For the same molecule, the IC50 (FGFR2) was over 100 nM, the IC50 (FGFR4) was over 100 nM and the IC50 (EGFR) was over 100 nM. For the same molecule, the IC50 (C-MET) was over 100 nM.
In the case of COc1cc2nccc(Oc3c(F)cc(NC(=O)N4CC[C@@H](O)C4)c(Cl)c3F)c2cc1C(N)=O [III-32], the IC50 ([1]; Homo sapiens) is reported as over 5000 nM, the IC50 ([2]; Homo sapiens) is reported as over 1000 nM and the IC50 ([3]; Homo sapiens) is reported as over 10000 nM. The IC50 ([4]; Homo sapiens) was over 10000 nM, the IC50 ([5]; Homo sapiens) was over 10000 nM and the IC50 (VEGFR-2 (KDR)) was over 10 nM. The IC50 (FGFR2) was over 100 nM, the IC50 (FGFR4) was over 100 nM and the IC50 (EGFR) was over 100 nM. It also gave an IC50 (C-MET) of over 100 nM.
Molecule COc1cc2nccc(Oc3c(F)cc(NC(=O)N4CCN(C)CC4)c(Cl)c3F)c2cc1C(N)=O [III-33] has an IC50 ([1]; Homo sapiens) of over 5000 nM, an IC50 ([2]; Homo sapiens) of over 1000 nM and an IC50 ([3]; Homo sapiens) of over 10000 nM. It also gave an IC50 ([4]; Homo sapiens) of over 10000 nM, an IC50 ([5]; Homo sapiens) of over 10000 nM and an IC50 (VEGFR-2 (KDR)) of over 10 nM. It also gave an IC50 (FGFR2) of over 100 nM, an IC50 (FGFR4) of over 100 nM and an IC50 (EGFR) of over 100 nM. The IC50 (C-MET) was over 100 nM.
COc1cc2nccc(Oc3c(F)cc(NC(=O)NC(C)C)c(Cl)c3F)c2cc1C(N)=O [III-34] showed an IC50 ([1]; Homo sapiens) of over 5000 nM, an IC50 ([2]; Homo sapiens) of over 1000 nM and an IC50 ([3]; Homo sapiens) of over 10000 nM. For the same molecule, the IC50 ([4]; Homo sapiens) was over 10000 nM, the IC50 ([5]; Homo sapiens) was over 10000 nM and the IC50 (VEGFR-2 (KDR)) was over 10 nM. It also gave an IC50 (FGFR2) of over 100 nM, an IC50 (FGFR4) of over 100 nM and an IC50 (EGFR) of over 100 nM. For the same molecule, the IC50 (C-MET) was over 100 nM.
COc1cc2nccc(Oc3c(Cl)cc(NC(=O)NC4CC4)c(F)c3F)c2cc1C(N)=O [III-35] was tested, and the IC50 ([1]; Homo sapiens) was over 5000 nM, the IC50 ([2]; Homo sapiens) was over 1000 nM and the IC50 ([3]; Homo sapiens) was over 10000 nM. For the same molecule, the IC50 ([4]; Homo sapiens) was over 10000 nM, the IC50 ([5]; Homo sapiens) was over 10000 nM and the IC50 (VEGFR-2 (KDR)) was over 10 nM. For the same molecule, the IC50 (FGFR2) was over 100 nM, the IC50 (FGFR4) was over 100 nM and the IC50 (EGFR) was over 100 nM. It also gave an IC50 (C-MET) of over 100 nM.
For COc1cc2nccc(Oc3c(F)c(F)c(NC(=O)NC4CC4)c(F)c3F)c2cc1C(N)=O [III-36], the IC50 ([1]; Homo sapiens) was over 5000 nM, the IC50 ([2]; Homo sapiens) was over 1000 nM and the IC50 ([3]; Homo sapiens) was over 10000 nM. For the same molecule, the IC50 ([4]; Homo sapiens) was over 10000 nM, the IC50 ([5]; Homo sapiens) was over 10000 nM and the IC50 (VEGFR-2 (KDR)) was over 10 nM. It also gave an IC50 (FGFR2) of over 100 nM, an IC50 (FGFR4) of over 100 nM and an IC50 (EGFR) of over 100 nM. It also gave an IC50 (C-MET) of over 100 nM.
C=CC1CC1(NC(=O)Nc1cc(F)c(Oc2ccnc3cc(OC)c(C(N)=O)cc23)c(F)c1Cl)C(=O)NC1CC1 (stereo not drawn) [III-37] was tested, and the IC50 ([1]; Homo sapiens) was over 5000 nM, the IC50 ([2]; Homo sapiens) was over 1000 nM and the IC50 ([3]; Homo sapiens) was over 10000 nM. The IC50 ([4]; Homo sapiens) was over 10000 nM, the IC50 ([5]; Homo sapiens) was over 10000 nM and the IC50 (VEGFR-2 (KDR)) was over 10 nM. The IC50 (FGFR2) was over 100 nM, the IC50 (FGFR4) was over 100 nM and the IC50 (EGFR) was over 100 nM. For the same molecule, the IC50 (C-MET) was over 100 nM.
For COc1cc2nccc(Oc3c(F)cc(NC(=O)NC(C)C(F)(F)F)c(Cl)c3F)c2cc1C(N)=O (stereo not drawn) [III-38], the IC50 ([1]; Homo sapiens) was over 5000 nM, the IC50 ([2]; Homo sapiens) was over 1000 nM and the IC50 ([3]; Homo sapiens) was over 10000 nM. The IC50 ([4]; Homo sapiens) was over 10000 nM, the IC50 ([5]; Homo sapiens) was over 10000 nM and the IC50 (VEGFR-2 (KDR)) was over 10 nM. For the same molecule, the IC50 (FGFR2) was over 100 nM, the IC50 (FGFR4) was over 100 nM and the IC50 (EGFR) was over 100 nM. For the same molecule, the IC50 (C-MET) was over 100 nM.
COc1cc2nccc(Oc3c(F)cc(NC(=O)NC4(C(F)(F)F)CC4)c(Cl)c3F)c2cc1C(N)=O [III-39] gave an IC50 ([1]; Homo sapiens) of over 5000 nM, an IC50 ([2]; Homo sapiens) of over 1000 nM and an IC50 ([3]; Homo sapiens) of over 10000 nM. It also gave an IC50 ([4]; Homo sapiens) of over 10000 nM, an IC50 ([5]; Homo sapiens) of over 10000 nM and an IC50 (VEGFR-2 (KDR)) of over 10 nM. For the same molecule, the IC50 (FGFR2) was over 100 nM, the IC50 (FGFR4) was over 100 nM and the IC50 (EGFR) was over 100 nM. For the same molecule, the IC50 (C-MET) was over 100 nM.
